In ChEMBL document CHEMBL1221170, “Sensing with TRP channels” (Nat Chem Biol, 2005) one finds Activity data, which are given here for eight compounds.

The structures appear in SMILES notation.

Sequence of Transient receptor potential cation channel subfamily A member 1 (Homo sapiens) (O75762 whole entry): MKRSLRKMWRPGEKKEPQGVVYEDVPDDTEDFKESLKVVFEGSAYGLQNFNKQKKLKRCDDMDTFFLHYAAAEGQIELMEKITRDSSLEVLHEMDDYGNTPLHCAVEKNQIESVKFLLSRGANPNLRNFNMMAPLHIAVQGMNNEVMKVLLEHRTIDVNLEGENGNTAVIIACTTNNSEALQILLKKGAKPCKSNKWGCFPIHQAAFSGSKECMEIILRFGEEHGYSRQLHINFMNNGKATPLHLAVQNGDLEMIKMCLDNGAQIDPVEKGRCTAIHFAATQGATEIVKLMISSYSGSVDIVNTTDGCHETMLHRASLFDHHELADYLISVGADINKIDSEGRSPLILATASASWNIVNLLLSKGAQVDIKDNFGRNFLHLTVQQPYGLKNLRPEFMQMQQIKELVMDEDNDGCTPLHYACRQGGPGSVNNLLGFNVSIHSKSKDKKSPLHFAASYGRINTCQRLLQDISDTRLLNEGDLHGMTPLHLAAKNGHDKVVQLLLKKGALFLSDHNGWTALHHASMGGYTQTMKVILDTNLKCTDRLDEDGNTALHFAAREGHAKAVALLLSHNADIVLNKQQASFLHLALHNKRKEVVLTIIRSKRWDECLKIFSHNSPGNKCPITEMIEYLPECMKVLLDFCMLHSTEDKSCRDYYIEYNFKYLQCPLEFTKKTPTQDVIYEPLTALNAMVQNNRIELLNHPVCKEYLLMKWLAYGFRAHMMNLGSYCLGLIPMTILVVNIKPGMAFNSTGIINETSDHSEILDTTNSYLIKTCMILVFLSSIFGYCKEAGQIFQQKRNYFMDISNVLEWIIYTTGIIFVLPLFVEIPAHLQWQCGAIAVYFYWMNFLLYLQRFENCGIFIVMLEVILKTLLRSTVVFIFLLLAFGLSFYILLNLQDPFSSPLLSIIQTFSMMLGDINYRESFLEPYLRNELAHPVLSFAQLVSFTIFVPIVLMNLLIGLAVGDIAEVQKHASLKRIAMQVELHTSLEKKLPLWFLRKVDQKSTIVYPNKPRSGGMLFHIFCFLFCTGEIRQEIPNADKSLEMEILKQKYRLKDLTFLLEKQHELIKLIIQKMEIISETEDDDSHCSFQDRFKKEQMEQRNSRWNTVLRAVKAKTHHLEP

In one assay the target is Transient receptor potential cation channel subfamily M member 8 (Homo sapiens) (UniProt Q7Z2W7). Description: Agonist activity at TRPM8. Type of assay: functional.
Sequence of Transient receptor potential cation channel subfamily M member 8 (Homo sapiens) (Q7Z2W7 whole entry, looked up): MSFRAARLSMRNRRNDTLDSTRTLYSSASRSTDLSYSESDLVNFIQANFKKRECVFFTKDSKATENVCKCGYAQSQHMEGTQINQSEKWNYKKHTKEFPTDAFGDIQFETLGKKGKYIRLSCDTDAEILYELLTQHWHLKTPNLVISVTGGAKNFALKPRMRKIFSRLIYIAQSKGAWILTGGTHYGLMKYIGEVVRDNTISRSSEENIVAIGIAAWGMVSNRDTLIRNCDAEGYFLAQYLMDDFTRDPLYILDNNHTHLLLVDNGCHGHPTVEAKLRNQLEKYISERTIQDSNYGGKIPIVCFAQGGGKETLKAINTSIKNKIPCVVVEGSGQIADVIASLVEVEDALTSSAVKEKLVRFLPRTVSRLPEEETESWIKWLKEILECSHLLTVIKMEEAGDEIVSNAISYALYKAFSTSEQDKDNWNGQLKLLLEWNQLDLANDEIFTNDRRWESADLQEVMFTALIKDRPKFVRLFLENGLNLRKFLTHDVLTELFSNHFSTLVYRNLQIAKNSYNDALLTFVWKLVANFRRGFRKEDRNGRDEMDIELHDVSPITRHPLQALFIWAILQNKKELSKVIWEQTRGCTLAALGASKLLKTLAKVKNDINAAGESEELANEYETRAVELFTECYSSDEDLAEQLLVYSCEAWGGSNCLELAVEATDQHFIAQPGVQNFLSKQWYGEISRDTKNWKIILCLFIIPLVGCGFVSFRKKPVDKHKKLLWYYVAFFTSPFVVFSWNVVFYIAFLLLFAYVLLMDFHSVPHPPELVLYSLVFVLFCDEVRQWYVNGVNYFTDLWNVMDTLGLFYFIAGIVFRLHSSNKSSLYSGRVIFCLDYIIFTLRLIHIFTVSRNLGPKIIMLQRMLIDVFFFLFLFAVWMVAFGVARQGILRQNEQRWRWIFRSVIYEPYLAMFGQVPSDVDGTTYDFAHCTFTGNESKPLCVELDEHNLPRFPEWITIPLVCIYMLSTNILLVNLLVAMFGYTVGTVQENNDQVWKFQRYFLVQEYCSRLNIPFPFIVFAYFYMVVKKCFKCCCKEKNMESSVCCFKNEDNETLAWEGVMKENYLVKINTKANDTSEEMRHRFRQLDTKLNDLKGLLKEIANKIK
For the compound `CC1CCC(C(C)C)C(O)C1` (centres undefined), the Activity amounted to 10 µM. The same measure, in the same setting: under `O=C1NC(c2cccc([N+](=O)[O-])c2)=CCN1c1ccccc1O` stands 0.099 µM; under `CC12CCC(CC1)C(C)(C)O2`, 100 µM.

Another assay concerns the target Transient receptor potential cation channel subfamily A member 1 (Homo sapiens) (UniProt O75762). Kind of assay: Agonist activity at TRPA1. Type of assay: functional.
`CCCCCc1cc(O)c2c(c1)OC(C)(C)[C@@H]1CCC(C)=C[C@@H]21` had an Activity of 10 µM. The same measure, in the same setting: in the case of `O=C1NC(c2cccc([N+](=O)[O-])c2)=CCN1c1ccccc1O` it was 0.099 µM; in that of `C=CCS[S+]([O-])CC=C` (centres undefined), 10 µM; in that of `O=C/C=C/c1ccccc1`, 10 µM.

For another assay, the target named is Transient receptor potential cation channel subfamily V member 4 (Homo sapiens) (UniProt Q9HBA0). Kind of assay: Agonist activity at TRPV4. Type of assay: functional.
Sequence of Transient receptor potential cation channel subfamily V member 4 (Homo sapiens) (Q9HBA0 whole entry): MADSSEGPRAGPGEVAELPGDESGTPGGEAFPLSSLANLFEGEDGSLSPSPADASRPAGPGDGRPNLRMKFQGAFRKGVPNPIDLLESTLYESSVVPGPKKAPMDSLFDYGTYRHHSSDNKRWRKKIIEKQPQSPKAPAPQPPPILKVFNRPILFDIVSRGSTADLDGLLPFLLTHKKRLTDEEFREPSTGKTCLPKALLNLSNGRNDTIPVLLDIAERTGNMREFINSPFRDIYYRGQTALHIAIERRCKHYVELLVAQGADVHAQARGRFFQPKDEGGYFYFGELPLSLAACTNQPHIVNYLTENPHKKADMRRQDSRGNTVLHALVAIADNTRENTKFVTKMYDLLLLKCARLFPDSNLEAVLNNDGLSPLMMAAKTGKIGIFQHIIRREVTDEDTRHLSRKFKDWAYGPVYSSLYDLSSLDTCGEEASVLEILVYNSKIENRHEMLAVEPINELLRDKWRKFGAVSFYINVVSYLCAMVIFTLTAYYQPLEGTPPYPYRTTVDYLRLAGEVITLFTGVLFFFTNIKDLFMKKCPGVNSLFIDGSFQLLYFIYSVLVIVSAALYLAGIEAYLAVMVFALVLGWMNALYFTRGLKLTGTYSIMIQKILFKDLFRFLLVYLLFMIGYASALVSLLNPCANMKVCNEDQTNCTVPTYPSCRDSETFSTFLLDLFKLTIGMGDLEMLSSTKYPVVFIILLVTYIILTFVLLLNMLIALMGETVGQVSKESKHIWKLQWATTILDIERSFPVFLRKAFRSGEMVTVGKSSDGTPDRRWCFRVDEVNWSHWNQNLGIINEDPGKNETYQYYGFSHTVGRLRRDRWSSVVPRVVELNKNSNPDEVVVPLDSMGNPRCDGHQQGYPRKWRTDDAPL
With `CCCCC/C=C/C/C=C/C/C=C/CC1OC1CCCC(=O)O` (centres undefined), the Activity is 0.01 µM. `CCCCCCCCCC(=O)O[C@H]1[C@H](C)[C@]2(O)[C@H](C=C(CO)C[C@@]3(O)C(=O)C(C)=C[C@H]23)[C@H]2C(C)(C)[C@@]12OC(=O)CCCCCCCCC` gave an Activity of 0.099 µM.
